Test [1] deals with wheat (cultivar: Apogee). In words: Reduction of high temperature stress by wheat foliage spraying treatment (plant weight). It counts as in vivo. The following applies: foliage spray, 0.5 mg in 50 ml; 45° C., 17 hours; 4 days after stress. As for the experimental part: Wheat (cultivar: Apogee) seeds were sown in the growing soil (AISAI) in a plastic pot ([…]×58 mm in height) and then cultivated for one week under the conditions of a temperature of 20 to 25° C., a humidity of 50 to 75%, an illuminance of 5,300 lx, and a day length of 16 hours.
A flowable formulation of the compound A was obtained by adding about 120 mg of a mixture of white carbon and a polyoxyethylene alkyl ether sulfate ammonium salt (weight ratio of 1:1) and 300 μl of water to 0.5 mg of the compound A, followed by fine grinding using a wet grinding method. The obtained flowable formulation was diluted with 50 ml of water to obtain a spray liquid. After adding 0.2% RINO as a sticker to the spray liquid, a sufficient amount (45 ml per 6 pots) was sprayed using an automatic spraying machine. As a control, a flowable formulation not containing the compound A was prepared and then sprayed to the non-treated group. Under the conditions of a temperature of 20 to 25° C., a humidity of 50 to 75%, an illuminance of 5,300 lx, and a day length of 16 hours, cultivation was carried out for 2 days.
The above test plants having been subjected to the spraying treatment were put in an artificial climate chamber set to the following conditions, and a stress test was carried out.
Temperature: 45° C., 17 hours, Illuminance: 6,500 to 7,900 lx, and Humidity: 50%. […]

The subject of test [2] is Tomato (cultivar: Micro-Tom). In words: Reduction of high temperature stress by tomato soil irrigation treatment (fruit setting rate). It counts as in vivo. The following applies: soil irrigation twice, 50 ml per seedling; 40° C. (day)/30° C. (night) for 7 days; 13 days after stress. As for the experimental part:
Tomato seeds (cultivar: Micro-Tom) were sown in the growing soil (AISAI) in a plastic pot and then cultivated in a greenhouse (set at a temperature of 25° C.) for about 4 weeks. A soil irrigation treatment was carried out twice, using an aqueous solution of a sodium salt of the compound A in an amount of 50 ml per seedling, on the 15th day and the 22nd day after seeding. As a control, a soil irrigation treatment was carried out using distilled water in an amount of 50 ml per seedling to form a non-treated group. After the irrigation treatment, plants cultivated up to the period when a 1st flower cluster blooms (1 to 2 flowers bloom(s), on the 32nd day after seeding) were cultivated for 7 days under the conditions of a temperature of 40° C. (day)/30° C. (night), a humidity of 63% (day)/70% (night), an illuminance of 7,100 lx, and a day length of 16 hours in the stress exposed group, while plants were cultivated for 7 days in a greenhouse (set at a temperature of 25° C.) in the stress non-exposed group. After the stress test, the test plants were cultivated for 13 days in a greenhouse (set at a temperature of 25° C.), the number of flower setting and the number of fruit setting were counted to determine a fruit setting rate (%) (number of fruit setting/number of flower setting×100).

For a further test, the system named is roots. The settings on record: known from JP 4,087,942, JP 2001-139405, Plant and Soil 255: 67-75 (2003); cited from earlier work.
Test [3] concerns wheat (cultivar: Apogee). Description: Reduction of high temperature stress by wheat seed treatment (plant weight), Test Example 10. It counts as in vivo. The following applies: seed coating 5 mg per 1 g of seeds; 36° C. (day)/32° C. (night) for 19 days; 36th day after seeding. As to the method: A Blank slurry solution containing 5% (V/V) color coat red (Becker Underwood, Inc.), 5% (V/V) CF-Clear (Becker Underwood, Inc.) and 0.4% Maxim XL (Syngenta) was prepared. The compound C (methyl 4-oxo-4-(2-phenylethyl)aminobutyrate) or the compound E (5-oxo-5-[2-(3-indolyl)ethyl]aminovaleric acid) was dissolved in the Blank slurry to obtain a slurry solution so as to control the amount of the compound to be 5 mg per 1 g of seeds. Using a 50-ml conical tube, seed coating was carried out by mixing 1.3 ml of the slurry solution with 50 g of wheat seeds (cultivar: Apogee) and the seeds were dried. As a control, seed coating was carried out using the Blank slurry solution in place of the slurry solution to obtain seeds for non-treated group. The coated seeds (5 seeds each) were sown in the growing soil (AISAI) in a plastic pot and then cultivated in a greenhouse (set at a temperature of 18° C. (day)/15° C. (night)) for 17 days. Before the stress test, thinning was carried out to control the number of seedlings to 3 per pot.
The above test plants on the 17th day after seeding were cultivated for 19 days in an artificial climate chamber under the conditions of a temperature of 36° C. (day)/32° C. (night), a humidity of 50% (day)/60% (night), an illuminance of 7,000 lx, and a day length of 12 hours. […]

Test [4] concerns Rice (cultivar: NIHOMBARE). Description: Reduction of low temperature stress in hydroponics of rice. It counts as in vivo. The following applies: hydroponic culture medium; stress exposed group, 2 to 4° C. for 3 to 7 days. As for the experimental part: Rice seeds (cultivar: NIHOMBARE) are immersed in distilled water containing 1,000 ppm of Benlate and then incubated at 30° C. for one day. The seeds are washed with distilled water, incubated in distilled water for one day and then subjected to a forced germination treatment. In the bottom of a 288-well plug tray, cotton wool is spread and then the seeds subjected to the forced germination treatment are sown. A hydroponic culture medium (8-fold diluted Kimura B hydroponic culture solution) is added thereto, followed by cultivation for 3 to 10 days under the conditions of a temperature of 28° C. (day)/23° C. (night), a humidity of 60%, an illuminance of 7,100 lx, and a day length of 12 hours. A DMSO solution having a concentration 1,000 times of each test concentration of any one of the compounds A to G is prepared and then diluted with a hydroponic culture medium. An aqueous solution (250,000 ppm) of a sodium salt of the compound A is diluted with the hydroponic culture medium to prepare a liquid having a test concentration. The above rice seedling is transferred to these hydroponic culture media containing the compound, and then cultivated for 7 to 10 days under the conditions of a temperature of 28° C. (day)/23° C. (night), a humidity of 60%, an illuminance of 7,100 lx, and a day length of 12 hours. Using a hydroponic culture medium containing 0.1% DMSO added therein as a control of any one of the compounds A to G and using a hydroponic culture medium as a control of the sodium salt of the compound A, the above rice seedlings are cultivated to form a non-treated group. The seedlings during the treatment with the present compound are cultivated for 3 to 7 days under the conditions of a temperature of 2 to 4° C., a humidity of 40 to 70%, an illuminance of 3,500 lx, and a day length of 12 hours in the stress exposed group, and under the conditions of a temperature of 25 to 30° C., a humidity of 50 to 75%, an illuminance of 4,500 lx, and a day length of 12 hours in the stress non-exposed group. After the stress test, the plant length and the weight of the above-ground part are examined. Using a pulse modulation chlorophyll fluorometer (MAXI-IMAGING-PAM, WALZ), the chlorophyll fluorescence (Fv/Fm) is measured.

Test [5] relates to wheat (cultivar: Apogee). Description: Reduction of high temperature stress by wheat seed treatment (plant weight), Test Example 2. It counts as in vivo. The following applies: 40° C. (day)/30° C. (night) for 14 days; for Fresh weight of the above-ground part: 32nd day after seeding. As to the method: A Blank slurry solution containing 5% (V/V) color coat red (Becker Underwood, Inc.), 5% (V/V) CF-Clear (Becker Underwood, Inc.) and 0.4% Maxim XL (Syngenta) was prepared. A sodium salt of the compound A was dissolved in the Blank slurry to obtain a slurry solution so as to control the amount of the sodium salt within a range from 0.5 mg to 2 mg per 1 g of seeds. Using a seed treating machine (HEGE11, manufactured by Hans-Ulrich Hege), seed coating was carried out by mixing 1.3 ml of the slurry solution with 50 g of wheat seeds (cultivar: Apogee) and the seeds were dried. As a control, seed coating was carried out using the Blank slurry solution in place of the slurry solution to obtain seeds for non-treated group. The coated seeds (5 seeds each) were sown in the growing soil (AISAI) in a plastic pot and then cultivated for 18 days under the conditions of a temperature of 20 to 25° C., a humidity of 50 to 75%, an illuminance of 5,300 lx, and a day length of 16 hours. Before the stress test, thinning was carried out to control the number of seedlings to 3 per pot. The above test plants on the 18th day after seeding were cultivated for 14 days under the conditions of a temperature of 40° C. (day)/30° C. (night), a humidity of 63% (day)/70% (night), an illuminance of 7,100 lx, and a day length of 16 hours. After the stress test, on the 32nd day after seeding, fresh weight of the above-ground part of test plants was examined for 4 to 7 pots.

Here are results for five compounds from patent US9084419B2, “Method for reducing temperature stress of plants” (SUMITOMO CHEMICAL COMPANY, LIMITED, priority 2009, dated 2015).

For the compound `O=C(O)CCC(=O)NCCc1ccccc1` [compound A, 4-oxo-4-(2-phenylethyl)aminobutyric acid], in the test with wheat (cultivar: Apogee) [1], the “fresh weight of the above-ground part vs non-treated group” value (“fresh weight … vs non-treated group” for short) is on record as “increased”; the “visual evaluation of high temperature stress-induced withering and dying vs non-treated group” value is “alleviation of high temperature stress-induced withering and dying was observed”. Further, the “fruit setting rate vs non-treated group” value in test [2] is listed as “a decrease in fruit setting rate was remarkably alleviated”. The “activity to promote growth of roots” value in the test on roots is recorded as “have activity to promote growth of roots”.
As for `COC(=O)CCC(=O)NCCc1ccccc1` [compound C, methyl 4-oxo-4-(2-phenylethyl)aminobutyrate], the “fresh weight … vs non-treated group” value in the test on wheat (cultivar: Apogee) [3] was “increased”.
Take `COC(=O)CCC(=O)NCCCCc1ccccc1` [compound B, methyl 4-oxo-4-(4-phenylbutyl)aminobutyrate]: in test [4], the “chlorophyll fluorescence (Fv/Fm) vs non-treated group” value was “increase”, the “plant length vs non-treated group” value is listed as “increase” and the “weight of the above-ground part vs non-treated group” value was “increase”.
As for `O=C([O-])CCC(=O)NCCc1ccccc1.[Na+]` [Compound A, Na salt], in the test on wheat (cultivar: Apogee) [5] (seed coating 0.5 mg/g of seeds), the “Percentage relative to non-treated group (fresh weight of the above-ground part)” value (from here on “Percentage relative to non-treated group”) was 150% and the Fresh weight of the above-ground part turned out to be 0.87 g/3 seedlings. Also, in the test on wheat (cultivar: Apogee) [5] (seed coating 1.0 mg/g of seeds), the “Percentage relative to non-treated group” value came out at 140% and the Fresh weight of the above-ground part stood at 0.77 g/3 seedlings. For the same compound, in the test on wheat (cultivar: Apogee) [5] (seed coating 2.0 mg/g of seeds), the “Percentage relative to non-treated group” value turned out to be 140% and the Fresh weight of the above-ground part stood at 0.81 g/3 seedlings. In test [4], the “chlorophyll fluorescence (Fv/Fm) vs non-treated group” value is “increase”, the “plant length vs non-treated group” value is reported as “increase” and the “weight of the above-ground part vs non-treated group” value is “increase”.
As for `O=C(O)CCCC(=O)NCCc1c[nH]c2ccccc12` [compound E, 5-oxo-5-[2-(3-indolyl)ethyl]aminovaleric acid], the “fresh weight … vs non-treated group” value in the test with wheat (cultivar: Apogee) [3] is “increased”.
